Earlier results on three molecules are cited in patent publication US20020006953A1, “MODIFICATION OF CHOLESTEROL CONCENTRATIONS WITH CITUS PHYTOCHEMICALS” (priority 1999, published 2002).

The conditions of data set [1]: 10% hesperidin diet.

In the case of `COc1ccc([C@@H]2CC(=O)c3c(O)cc(O[C@@H]4O[C@H](CO[C@@H]5O[C@@H](C)[C@H](O)[C@@H](O)[C@H]5O)[C@@H](O)[C@H](O)[C@H]4O)cc3O2)cc1O` [hesperidin], the “plasma concentration of triacylglycerols” value in data set [1] is reported as “significantly reduced”. In addition, the activity of lipase result in the data set with lipase is reported as “inhibit”.
As to `COc1ccc([C@@H]2CC(=O)c3c(O)cc(O)cc3O2)cc1O` [hesperetin], in the data set with HepG2 cells, the “net secretion of apo B” value is given as “reduced”.
On to `O=C1C[C@@H](c2ccc(O)cc2)Oc2cc(O)cc(O)c21` [naringinin], for which the “net secretion of apo B” value in the data set on HepG2 cells is “reduced”.
